The source of these data is PMC6154339, “Synthesis, Characterization, Antimicrobial and Antiproliferative Activity Evaluation of Cu(II), Co(II), Zn(II), Ni(II) and Pt(II) Complexes with Isoniazid-Derived Compound” (Molecules : A Journal of Synthetic Chemistry and Natural …, 2017).

Structures are written as SMILES. ≈ marks a conversion by molar mass, not a printed value. Like-named read-outs stand apart in the source and are kept apart here.

Data set [1] has as its system Daphnia magna.
The subject of data set [2] is Klebsiella pneumoniae, ATCC 31,488. Nature of the data set: Antibacterial activity, serial dilutions in liquid broth (MIC/MBC). It is filed as cell-based. Particulars: K. pneumoniae (G −). From the text:
(§1) All synthesized complexes and the ligand were screened for their in vitro antibacterial activity against Gram-positive bacteria (Staphylococcus aureus), Gram-negative bacteria (Escherichia coli, Klebsiella pneumoniae) and antifungal activity (Candida albicans) strains using the paper disc diffusion technique (for the qualitative determination) and the serial dilutions in liquid broth method (for determination of MIC). Furacillinum and nystatine were used as standard drugs.
(§2) The antibacterial activity of complexes and also of their prototype furacilin has been determined under liquid nutritive environment (2% of peptonate bullion (pH 7.0)) using the successive dilutions method. Escherichia coli, Klebsiella pneumoniae, and Staphylococcus aureus stems were used as reference culture for the in vitro experiment. The dissolution of studied substances in dimethylformamide, microorganism cultivation, suspension obtaining, determination of minimal inhibition concentration (MIC) and minimal bactericide concentration (MBC) have been carried out according to the method previously reported.

Data set [3] relates to Escherichia coli, ATCC 25922. The data set is described as above. It counts as cell-based. Particulars: E. coli (G −).
Text: as §1, §2

Data set [4] has as its system Staphylococcus aureus, ATCC 25923. Described as above. It is filed as cell-based. Particulars: S. aureus (G +).
Text: as §1, §2

Data set [5] deals with Candida albicans. The data set can be described thus: Antifungal (antimycotic) activity, liquid Sabouraud medium (MIC/MBC). It counts as cell-based. Particulars: C. albicans.
Text: as §1
Antimycotic properties of the complexes were investigated in vitro on laboratory stem Candida albicans. The activity has been determined in a liquid Sabouraud nutritive environment (pH 6.8). The inoculates were prepared from fungi stems which were harvested over 3–7 days. Their concentration in suspension is (2–4) × 10^6 colonies form unities in milliliter. Sowings for levures and micelles were incubated at 37 °C during 7 and 14 days, respectively.

The nature of data set [6]: Solubility in compendial aqueous media. It is filed as physicochemical. Conditions: 37 °C, 30 min, mean ± standard deviation, n = 3. Here is the method: Solubility assessment was conducted in compendial aqueous solutions prepared according to United States Pharmacopoeia USP39/NF34): hydrochloric acid 0.1 N pH 1.2, acetate buffer pH 4.5 and phosphate buffer 6.8. These buffer systems are routinely used for screening of drug dissolution testing and they simulate the pH values of proximal gastrointestinal regions. The standard samples were prepared by diluting the stock solution of 80 µg/mL in dimethyl sulfoxide (with 0.2% pyridine, v/v) with corresponding media. The reagents were of analytical grade and used as received.
The assay was performed using a SpectraMax Plus 84 Plate reader reader (Sunnyvale, CA, USA), Molecular Devices LLC (US), equiped with SoftMax software version 6.4.2 (Sunnyvale, CA, USA). Separate plates were loaded with standard solutions in nine concentrations (0.2 to 80 µg/mL). For evaluation of the aqueous solubility, the samples were prepared in triplicate by adding 10 µL of the stock solution to the wells loaded with 190 µL of each buffer, using MultiScreen HTS plates (PCF, code MSSLBPC, Merck Millipore, Darmstadt, Germany). After 30 minutes of incubation at 37 ± 0.5 °C under agitation (250 rpm, IKA KS 4000 ic control, IKA, Staufen, Germany), the plates were filtrated under vacuum using a Vac-Man 96 Vacuum manifold (Promega Corporation, Madison, WI, USA). The solutions were collected in V-bottom polypropylene 96-well microplates (Greiner Bio-One, Kremsmünster, Austria). Volumes of 100 µL were transferred to UV-Star 96-well microplate with flat bottom (Chimney well, Grained Bio-One) and diluted by addition of 100 µL of the corresponding medium. The absorbance corresponding to each well was determined at fixed wavelengths: 280, 300, 320, 340, 360 and 800 nm. The reduced value of absorbance, calculated by the sum of the values recorded at the six wavelengths, were used for the calibration curve and subsequent determination of concentration in each solubility sample.

Data set [7] has as its system MCF-7 human breast cancer cell line. Nature of the data set: Alamar blue cell viability assay. It is filed as cell-based. Conditions: 48 h treatment, 10 µM, relative to untreated control. As for the experimental part:
(§3) Compounds HL, 1, 5, 6 and 8 were dissolved in dimethyl sulfoxide (DMSO; Sigma-Aldrich, Ayrshire, UK) and stored at 2–8 °C. Compounds 2, 3, 4 and 7 were dissolved in pyridine (Fluka, Munich, Germany). A stock solution of 10 mM in the proper solvents was prepared; as for the final concentration (10 µM), successive dilution of the stock solution with culture medium was made.
(§4) The breast cancer cell lines were cultured as follow: MCF-7 human breast cancer cell line (ATCC, Rockville, MD, USA) was cultured in EMEM (Sigma Aldrich, Munich, Germany) supplemented with 10% FCS (fetal bovine serum, PromoCell, Heidelberg, Germany), 1% penicillin-streptomycin (Pen/Strep, 10,000 IU/mL; PromoCell, Heidelberg, Germany), 1% nonessential amino acids and 1% glutamine (PromoCell, Heidelberg, Germany). SKBR-3 human breast cancer cell line was cultured in McCoy’s 5a Medium Modified (Sigma Aldrich, Munich, Germany) supplemented with 10% FCS (fetal bovine serum, PromoCell, Heidelberg, Germany), 1% penicillin-streptomycin (Pen/Strep, 10,000 IU/mL; PromoCell, Heidelberg, Germany). A375 human melanoma cell line was cultured in DMEM containing 15% FCS (fetal bovine serum, PromoCell, Heidelberg, Germany) and 1% penicillin-streptomycin (Pen/Strep, 10,000 IU/mL; PromoCell, Heidelberg, Germany). Cells were maintained at an atmosphere of 5% CO2 at 37 °C. NCI-H1573 lung adenocarcinoma cell line was cultured in RPMI-1640 Medium (ATCC, Rockville, MD, USA) supplemented with 10% FCS (fetal bovine serum, PromoCell, Heidelberg, Germany), 1% penicillin-streptomycin (Pen/Strep, 10,000 IU/mL; PromoCell, Heidelberg, Germany).
(§5) All tested cell lines were seeded onto a 96-well microplate ([…]) and left overnight to attach to the bottom of the well. After 24 h, the amount of 150 μL of the tested substances dissolved into the culture medium was added and cells were incubated for 48 h. After the incubation period, a volume of 15 μL of the Alamar blue (BioSource, Camarillo, CA, USA) solution was added. After another 10 h of incubation at 37 °C, the samples were spectrophotometrically analyzed using a microplate reader. The wave lengths used were 570 nm and 600 nm, respectively. Wells with untreated cells were used as controls. The highest concentration of DMSO and pyridine (0.1%) used to prepare stock solutions was also tested, in order to identify the solvent activity. All measurements were performed in triplicate and data were presented as mean ± standard deviation.
Background: Alamar Blue is a resazurin reagent that responds to reducing activity.

Data set [8] concerns SKBR-3 human breast cancer cell line. The data set can be described thus: Alamar blue cell viability assay. It counts as cell-based. Particulars: 48 h treatment, 10 µM, relative to untreated control. As for the experimental part:
as §3, §4, §5

Data set [9] has as its system A375 human melanoma cell line. The data set can be described thus: Alamar blue cell viability assay. It counts as cell-based. Conditions: 48 h treatment, 10 µM, relative to untreated control. As for the experimental part: as §3, §4, §5
Data set [10] can be described thus: Qualitative solubility in organic solvents. It counts as physicochemical.
Data set [11] deals with NCI-H1573 lung adenocarcinoma cell line. The data set can be described thus: Alamar blue cell viability assay. It is filed as cell-based. Particulars: 48 h treatment, 10 µM, relative to untreated control. Here is the method:
as §3, §4, §5

Where [12] appears, read: Hydrochloric Acid 0.1 N (pH = 1.2).

Usually LC50 stands for the concentration lethal to half of the exposed cells or organisms. A higher LC50 goes with lower toxicity. As usually defined, the MIC is the smallest concentration in the dilution series that meets the test's criterion for growth inhibition. Low readings indicate a more susceptible organism, high ones a less susceptible organism.

In the case of `CC(=O)[O-].CC(=O)[O-].[Cu+2]` [Cu(CH3COO)2], in data set [1] (after 24 h of exposure, printed as 'lower'), the “LC50 of copper acetate relative to the perchlorate” value was “about 25 fold”. For the same compound, the 50% lethal concentration (LC50) in [1] (incubation period 24 h) stood at 9.68 µM; in data set [1] (incubation period 48 h), 0.44 µM.

Turning to `[Cu+2].[O-][Cl+3]([O-])([O-])[O-].[O-][Cl+3]([O-])([O-])[O-]` [Cu(ClO4)2], in data set [1] (incubation period 24 h), the LC50 is 0.39 µM.

For the compound `O=[N+]([O-])[O-].O=[N+]([O-])[O-].[Cu+2]` [Cu(NO3)2], the LC50 in data set [1] (incubation period 24 h) came to 7.43 µM; in data set [1] (incubation period 48 h) it was 1.39 µM.

Turning to `[Cl][Cu][Cl]` [CuCl2], the 50% lethal concentration (LC50) in data set [1] (incubation period 24 h) is 4.23 µM; in data set [1] (incubation period 48 h), 0.97 µM.

Regarding `NC(=O)N/N=C/c1ccc([N+](=O)[O-])o1` [Furacillinum, reference compound], the MBC in data set [2] was above 300 µg/mL; in [3], 37.5 µg/mL (≈ 189 µM); in data set [4], 9.35 µg/mL (≈ 47.2 µM). In addition, the figures for the MIC in [2], in [3] and in data set [4] were above 300 µg/mL, 18.7 µg/mL (≈ 94.4 µM) and 9.35 µg/mL (≈ 47.2 µM), respectively.

`[Cl][Pt-2]([Cl])([Cl])[Cl].[K+].[K+]` [K2PtCl4]: the LC50 in data set [1] (incubation period 24 h) was 27.7 µM; in [1] (incubation period 48 h), 5.63 µM.

For `[Cl][Ni][Cl]` [NiCl2], the results for the median lethal concentration (LC50) in data set [1] (incubation period 24 h) and in data set [1] (incubation period 48 h) were 100 µM and 16.2 µM, respectively.

`C[C@@H]1[C@H](O)[C@@H](C)/C=C/C=C/CC/C=C/C=C/C=C/C=C/C(O[C@H]2O[C@H](C)[C@@H](O)[C@H](N)[C@@H]2O)CC2O[C@](O)(CC(O)C(O)CCC(O)CC(O)CC(O)CC(=O)O[C@H]1C)CC(O)C2C(=O)O` (stereo partly shown) [Nystatine, reference compound]: in data set [5], the MBC was determined as 80 µg/mL (≈ 86.4 µM) and the MIC is 80 µg/mL (≈ 86.4 µM).

Regarding `[Cl-].[Cl-].[Zn+2]` [ZnCl2], the results for the median lethal concentration (LC50) in [1] (incubation period 24 h) and in [1] (incubation period 48 h) were 15.4 µM and 0.89 µM, respectively.

For the compound `COc1cccc(C=NNC(=O)c2ccncc2)c1[O-].O.O.[Cl-].[Cu+2]` [complex 1, [Cu(L)(Cl)]·2H2O], the MBC is 500 µg/mL in data set [2], 500 µg/mL in data set [3], 0.03 µg/mL in data set [4] and 15 µg/mL in data set [5]. Besides, the MIC in data set [2] amounted to 500 µg/mL; in data set [3], 500 µg/mL; in data set [4], 0.015 µg/mL; in [5], 7 µg/mL. Further, the “solubility in compendial media” value in [6] (Acetate Buffer (pH = 4.5)) is on record as 1.89 ± 0.20 µg/mL; in data set [6] (setting [12]), 2.34 ± 0.28 µg/mL; in data set [6] (Phosphate Buffer (pH = 6.8)) it was below 0.2 µg/mL. Further, the Viability % in data set [7] was determined as 2.47%; in data set [8] it was 25.24%; in data set [9] it was 84.43%. Besides, the LC50 in data set [1] (incubation period 24 h) stood at 394 µM; in data set [1] (incubation period 48 h), 69.5 µM. In [10], the “solubility in organic solvents (qualitative)” value (“solubility in organic solvents” for short) was “soluble in acetone, acetonitrile, DMF and DMSO, and is partially soluble in ethanol and methanol”.

Turning to `COc1cccc(C=NNC(=O)c2ccncc2)c1[O-].[Cl-].[Ni+2]` [complex 7, [Ni(L)(Cl)]], the MBC was determined as 500 µg/mL in [2], 500 µg/mL in data set [3], 0.7 µg/mL in data set [4] and 125 µg/mL in data set [5]. The MIC stood at 500 µg/mL in [2], 500 µg/mL in data set [3], 0.7 µg/mL in [4] and 125 µg/mL in [5]. The results for the “solubility in compendial media” value in data set [6] (Acetate Buffer (pH = 4.5)), in data set [6] (setting [12]) and in [6] (Phosphate Buffer (pH = 6.8)) were 1.91 ± 0.26 µg/mL, 2.26 ± 0.44 µg/mL and below 0.2 µg/mL, respectively. The Viability % in [7] is reported as 47.75%; in [8], 21.11%; in data set [9] it was 98.97%. The results for the LC50 in data set [1] (incubation period 24 h) and in [1] (incubation period 48 h) were 351 µM and 210 µM, respectively. Moreover, in data set [10], the “solubility in organic solvents” value was “soluble in methanol, pyridine, DMF and DMSO, and is partially soluble in acetonitrile, acetone”.

For `COc1cccc(C=NNC(=O)c2ccncc2)c1[O-].[Cl-].[Pt+2]` [complex 8, [Pt(L)(Cl)]], the MBC is reported as 500 µg/mL in data set [2], 250 µg/mL in data set [3], 0.7 µg/mL in data set [4] and 63 µg/mL in [5]. For the same compound, the MIC in [2] is on record as 250 µg/mL; in data set [3], 125 µg/mL; in data set [4], 0.7 µg/mL; in data set [5] it was 63 µg/mL. Besides, the “solubility in compendial media” value is 2.49 ± 0.09 µg/mL in data set [6] (Acetate Buffer (pH = 4.5)), 1.33 ± 0.05 µg/mL in [6] (setting [12]) and below 0.2 µg/mL in data set [6] (Phosphate Buffer (pH = 6.8)). In addition, the figures for the Viability % in [11], in data set [7] and in [9] were 20.34%, 21.71% and 73.45%, respectively. Also, the LC50 in data set [1] (incubation period 24 h) is 469 µM; in data set [1] (incubation period 48 h), 78.2 µM. The “solubility in organic solvents” value in [10] was “soluble in DMF and DMSO, and is partially soluble in ethanol, methanol, acetonitrile, acetone”.
